# Measured values taken from US9340577B2, “HLA binding motifs and peptides and their uses” (priority 1992, dated 2016).
# “And” between values parts separate entries of the source, which are not always exact repeats. Equal entries are not always repeated. Where two headings read alike, the source gives them in different places.
# Tests used:
# [1] = test system: HLA-A24; assay type: binding, human
# [2] = biological target: HLA-A*0201 (HLA-A2.1) (Homo sapiens, UniProt P04439, D140Y/D185E/D98H/E176V/E277Q/G131W/G231S/I119V/I121R/I166T/I218V/L300P/L318F/N151K/N90K/P208A/P217A/Q86G/Q94H/R138H/R169H/T345S); assay: biochemical; assay type: binding
# [3] = biological target: A2.1 HLA molecules (Homo sapiens, UniProt P04439, D140Y/D185E/D98H/E176V/E277Q/G131W/G231S/I119V/I121R/I166T/I218V/L300P/L318F/N151K/N90K/P208A/P217A/Q86G/Q94H/R138H/R169H/T345S); assay type: binding; parameters: A*0201 / A2.1 Binding / A2 Bind. / A2 / A2.1 (binding capacity): scale not given here
Substance,binding to HLA-A24 (column 6; no allele head shown for these rows) [1],binding to HLA-A2.1 (column 3; no allele head shown for these rows) [2],other results
SLQLVFGIDV,0.0001,0.0047,–
IMPKTGFLII,0.050,0.0007,–
VLVTCLGL,0,0.0010,–
VADLVGFLL,0.0007,0.0011,–
KVLEYVIKV,0,0.095,A2 Bind. [3]: 0.0900
GASSLPTTM,0.0010,0,–
KAEMLESVL,0,0,–
VLGTLEEV,0,0.0088,–
IMPKTGFLI,3.2,0.0035,–
LAETSYVKVL,<0.0002,0,–
RALAETSYV,0,0.014,A2 [3]: 0.0100; A2 Bind. [3]: 0.0100
VAELVHFLL,0.039,0,–
ETSYVKVLEY,0,0,–
AATSSSSPL,<0.0002,0,–
ILLWQPIPV,0,1.4,–
EMLESVIKN,–,–,A24 [1]: 0; A2.1 [2]: <0.0002
VADLVGFLLL,0.0003,0.0008,–
QAATSSSSPL,<0.0002,0,–
FLLLKYRA,0,0.0007,–
KVADLVGFLL,0.0070,0.041,A2 Bind. [3]: 0.0560
GLVCVQAA,0,0.0008,–
SAYGEPRKLL,0.0008,0,–
GLVCVQAAT,0.0001,0.0007,–
YVIKVSARV,0,0.018,A2 Bind. [3]: 0.0140
EALEAQQEAL,0,0,–
ALREEEEGV,0,0.0056,A2 Bind. [3]: 0.0210
EAQQEALGL,<0.0002,0,–
KMVELVHFL,0.0043,0.13,A2.1 [2]: 0.16; A2 Bind. [3]: 0.1600

Substance,binding to HLA-A24 (column 6; no allele head shown for these rows) [1],binding to HLA-A2.1 (column 3; no allele head shown for these rows) [2],other results
EIWEELSVMEV,0,0.013,–
ALGLVCVQAA,0,0.0002,–
ALAETSYVKV,0,0.017,A2 [3]: 0.0150; A2 Bind. [3]: 0.0150
KVAELVHFL,0.0005,0.073,–
FLWGPRALA,0,0.042 and 0.027,A2 [3]: 0.0420; A2 Bind. [3]: 0.0420
LVLGTLEEV,0.0003,0.032,A2 [3]: 0.0320; A2 Bind. [3]: 0.0320; A2.1 relative binding (ratio of binding of test peptide relative to standard peptide) [3]: 0.032
CILESLFRA,0,0.073,A2 Bind. [3]: 0.0460
KMVELVHFLL,0.0008,0.071,A2 [3]: 0.2200; A2 Bind. [3]: 0.1100
GLLGDNQIM,0.0002,0.0054,A2.1 [2]: 0.0051
AAISRKMVEL,0,0,–
ALAETSYVK,0,0.0002,–
KVADLVGFL,0,0.0091,–
RAHYNIVTF [Peptide E7-49],–,–,binding class for HLA-A24 [1]: intermediate affinity (key: high affinity: >0.1; intermediate affinity: 0.1-0.01; low affinity: 0.01-0.001)
F185.01 (LYSACFWWL) [Peptide F185.01],–,–,IC50 ([1]; read-out: A*2402): 28 nM
QIMPKTGFLII,0.0030,0.0003,–
FLIIVLVMIAM,0.0011,0.0041 and 0.0031,–
GASAFPTTI,<0.0002,0,–
ILESLFRA,0.0011,0.0017,–
GASSFSTTI,0.0002,0,–
SLQLVFGI,0,0.0094,–
YLEYGRCRTV,0,0.0097,–
MLESVIKNYK,0,0,–
SAYGEPRKL,<0.0002,0.0002,–
"AYIDNVYKF [Peptide 979-01, reference compound]",–,–,"apparent % of available receptor (active MHC) [1]: 8.3%; Kd ([1]; read-out: KD from Scatchard experiments, A24): 136 nM; Kd ([1]; read-out: apparent KD from cold inhibition experiments, A24): 30 nM"
VIPHAMSSCGV,0,1.4,–
KAEMLESVI,<0.0002,0,–
VMIAMEGGHA,0,0.0023,A2 Bind. [3]: 0.0360
